Our source for the IC50 and MIC values is US12692253B2, “Antimicrobial compounds and methods” (Curza Global, LLC, priority 2019, dated 2026).

The test system of assay [1] is E. coli S30 extract (bacterial protein synthesis). Description: E. coli S30 extract coupled transcription-translation luciferase assay (inhibition of bacterial protein synthesis). The following applies: class by IC50 or % inhibition @ 1 μM, read-out: S30 IC50 (μM/% inhib.). Format: biochemical. The essentials:
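Coupled transcription-translation in E. coli S30 circular-DNA extract expressing luciferase from pBESTluc, with 8-point 2-fold compound dilutions; 1 hour at 37 °C, stopped at 4 °C. Luminescence read; % inhibition versus no-inhibitor wells, no-DNA wells as background.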

The target of assay [2] is Rabbit Reticulocyte Lysate (eukaryotic protein synthesis). The experiment in a line: Rabbit reticulocyte lysate luciferase assay (inhibition of eukaryotic protein synthesis). The following applies: class by IC50 or % inhibition @ 1 μM, read-out: Rabbit reticulocyte IC50 (μM/% inhib.). Format: biochemical. The gist of the method: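 In vitro translation of luciferase control RNA in nuclease-treated rabbit reticulocyte lysate with amino acid mixture, compounds in 2-fold serial dilution, 90 minutes at 30° C. Luminescence read after luciferase reagent; % inhibition relative to water no-inhibitor controls, with no-RNA background wells.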

Assay [3] has as its system A. baumannn (Ab). Description: Broth microdilution minimum inhibitory concentration (MIC), CLSI. In kind it is cell-based. The following applies: Acinetobacter baumannii, read-out: Ab + bicarb MIC. The essentials:
(§1)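 CLSI broth microdilution with modification: 8-point two-fold compound dilutions in CAMHB, CAMHB plus 6.25 or 25 mM sodium bicarbonate, or CAMHB plus 0–50% heat-inactivated human serum. Inoculum 5×10^4 CFU/well from log-phase cultures adjusted to 0.5 McFarland; triplicate wells.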
Background: Dilution methods test growth across graded concentrations, often in twofold steps.

The test system of assay [4] is E. coli (Ec). Described as above. Format: cell-based. The following applies: Escherichia coli, growth medium supplemented with sodium bicarbonate, read-out: E. coli + bicarb MIC. The essentials: as §1
Assay [5] relates to E. faecalis (Ef). The description is as above. The following applies: Enterococcus faecalis, growth medium supplemented with sodium bicarbonate, read-out: Ef + bicarb MIC. Format: cell-based. The essentials: as §1
In assay [6] the test system is P. aeruginosa (Pa). Described as above. Format: cell-based. The settings on record: Pseudomonas aeruginosa, growth medium supplemented with sodium bicarbonate, read-out: Pa MIC + bicarb. The gist of the method:
as §1

For assay [7], the system named is S. aureus (Sa). The assay is described as above. Format: cell-based. The following applies: Staphylococcus aureus, growth medium supplemented with sodium bicarbonate, read-out: Sa + bicarb MIC. The essentials: as §1

As usually defined, the MIC is the lowest concentration that inhibits growth of the organism. For the molecule `NC[C@@H]1[C@H]2CN(CCc3ccc(-n4ccc(NC(=O)N5CCC6(CC5)CC(N)C6)nc4=O)cc3)C[C@@H]12` [Compound 146], the IC50 in assay [1] and in assay [2] was not below 1 µM each time. Further, the MIC is 8 to 32 µg/mL in assay [3]; less than 8 µg/mL in assay [4]; less than 8 µg/mL in assay [5]; 8 to 32 µg/mL in assay [6]; less than 8 µg/mL in assay [7].
Take `NC[C@@H]1[C@H]2CN(CCc3ccc(-n4ccc(NC(=O)N5CCC6(CC5)CNC6)nc4=O)cc3)C[C@@H]12` [Compound 147]: the IC50 in assay [1] and in assay [2] was not below 1 µM in each case. Further, the MIC in assay [3] is more than 32 µg/mL; in assay [4], less than 8 µg/mL; in assay [5], more than 32 µg/mL; in assay [6] it was more than 32 µg/mL; in assay [7], less than 8 µg/mL.
In the case of `NC[C@@H]1[C@H]2CN(CCc3ccc(-n4ccc(NC(=O)N5CC6(CCC6N)C5)nc4=O)cc3)C[C@@H]12` (stereo partly drawn) [Compound 148], the IC50 in assay [1] and in assay [2] was not below 1 µM throughout. Besides, the MIC in assay [3], in assay [4], in assay [5], in assay [6] and in assay [7] was more than 32 µg/mL each time.
For `NC[C@@H]1[C@H]2CN(CCc3ccc(-n4ccc(NC(=O)N5CC6(CC(N)C6)C5)nc4=O)cc3)C[C@@H]12` [Compound 149], the IC50 in assay [1] and in assay [2] was not below 1 µM each time. For the same molecule, the minimal inhibitory concentration (MIC) in assay [3] was more than 32 µg/mL; in assay [4] it was 8 to 32 µg/mL; in assay [5], more than 32 µg/mL; in assay [6], more than 32 µg/mL; in assay [7], 8 to 32 µg/mL.
On to `CCCC(Cc1ccc(-n2ccc(NC(=O)N3CCN(C(=O)C(C)(C)N)CC3)nc2=O)cc1)N1C[C@@H]2[C@@H](CN)[C@@H]2C1` (stereo partly drawn) [Compound 150], for which the IC50 was less than 0.5 µM in assay [1] and not below 1 µM in assay [2]. For the same molecule, the MIC in assay [3], in assay [4], in assay [5], in assay [6] and in assay [7] was less than 8 µg/mL throughout.
Turning to `CCC(Cc1ccc(-n2ccc(NC(=O)N3CCN(C(=O)[C@@](C)(N)CO)CC3)nc2=O)cc1)N1C[C@@H]2[C@@H](CN)[C@@H]2C1` (stereo partly drawn) [Compound 151], the IC50 is less than 0.5 µM in assay [1] and not below 1 µM in assay [2]. Besides, the MIC was 8 to 32 µg/mL in assay [3]; less than 8 µg/mL in assay [4]; less than 8 µg/mL in assay [5]; 8 to 32 µg/mL in assay [6]; less than 8 µg/mL in assay [7].
Turning to `CC[C@@H](N)C1[C@H]2CN(CCc3ccc(-n4ccc(NC(=O)N5CCN(C(=O)C(C)(C)N)CC5)nc4=O)cc3)C[C@@H]12` (stereo partly drawn) [Compound 152], the IC50 in assay [1] and in assay [2] was not below 1 µM each time. Further, the MIC in assay [3] was more than 32 µg/mL; in assay [4] it was 8 to 32 µg/mL; in assay [5], more than 32 µg/mL; in assay [6] it was more than 32 µg/mL; in assay [7], more than 32 µg/mL.
`CCCC(Cc1ccc(-n2ccc(NC(=O)N3CCN(C(=O)C(C)(C)N)CC3)nc2=O)cc1F)N1C[C@@H]2[C@@H](CN)[C@@H]2C1` (stereo partly drawn) [Compound 153]: the IC50 is less than 0.5 µM in assay [1] and not below 1 µM in assay [2]. Further, the MIC in assay [3] was less than 8 µg/mL; in assay [4], less than 8 µg/mL; in assay [5], less than 8 µg/mL; in assay [6] it was 8 to 32 µg/mL; in assay [7] it was less than 8 µg/mL.
For `CCC(Cc1ccc(-n2ccc(NC(=O)N3CCN(C(=O)C(C)(C)N)CC3)nc2=O)cc1F)N1C[C@@H]2[C@@H](CN)[C@@H]2C1` (stereo partly drawn) [Compound 154], the IC50 is less than 0.5 µM in assay [1] and not below 1 µM in assay [2]. Besides, the MIC in assay [3], in assay [4], in assay [5], in assay [6] and in assay [7] was less than 8 µg/mL throughout.
